Reference: the supplement of paper PMC11061612

Tests used:
[1] = test system: CAL-148 (Breast Carcinoma); experiment: combination Emax (second highest fraction inhibited in the dose matrix, 72 h); higher = more inhibition; extreme values may be limits of the assay
Method in brief: (§1)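 Bliss excess equals the observed combination effect minus the expected value EA + EB − EA·EB, where EA and EB are the effects of each agent alone. Combination Emax is the second-highest inhibition within the matrix. Inhibition was scaled from CellTiter-Glo 2.0 luminescence, with 0 set by vehicle wells and 1 by blank wells, after 72 hours of two-drug dosing of cells plated in 1536-well plates.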

[2] = test system: ES4 (Ewing's Sarcoma); experiment: as above
Method in brief: as §1

[3] = test system: KP-1N (Pancreatic Carcinoma); experiment: as above
Method in brief: as §1

[4] = test system: LB831-BLC (Bladder Carcinoma); experiment: as above
Method in brief: as §1

[5] = test system: Hs-578-T (Breast Carcinoma); experiment: as above
Method in brief: as §1

[6] = test system: NCI-H82 (Small Cell Lung Carcinoma); experiment: as above
Method in brief: as §1

[7] = test system: HT-1376 (Bladder Carcinoma); experiment: Bliss excess, mean over the matrix (fraction); higher = more synergy
Method in brief: as §1

[8] = test system: 42-MG-BA (Glioblastoma); experiment: as above
Method in brief: as §1

[9] = test system: COLO-205 (Colorectal Carcinoma); experiment: as above
Method in brief: as §1

[10] = test system: HCC1806 (Breast Carcinoma); experiment: as above
Method in brief: as §1

[11] = test system: B-CPAP (Thyroid Gland Carcinoma); experiment: as above
Method in brief: as §1

[12] = test system: DEL (T-Cell Non-Hodgkin's Lymphoma); experiment: as above
Method in brief: as §1

[13] = test system: NB10 (Neuroblastoma); experiment: as above
Method in brief: as §1

[14] = test system: KURAMOCHI (Ovarian Carcinoma); experiment: as above
Method in brief: as §1

[15] = test system: UM-UC-3 (Bladder Carcinoma); experiment: as above
Method in brief: as §1

[16] = test system: Ramos-2G6-4C10 (Burkitt's Lymphoma); experiment: as above
Method in brief: as §1

[17] = test system: Hs-578-T (Breast Carcinoma); experiment: as above
Method in brief: as §1

[18] = test system: MDA-MB-361 (Breast Carcinoma); experiment: as above
Method in brief: as §1

[19] = test system: HuP-T4 (Pancreatic Carcinoma); experiment: as above
Method in brief: as §1

[20] = test system: SNU-5 (Gastric Carcinoma); experiment: as above
Method in brief: as §1

For `COc1nnc2ccc(N3CCC(c4ccc(OCCN5CCN(C)C(=O)[C@H]5C)cc4)CC3)nn12` [AZD5153] + Cn1cnc2c(F)c(Nc3ccc(Br)cc3Cl)c(C(=O)NOCCO)cc21 [Selumetinib] (first compound max 1 µM, 7x7, partner max 10 µM), the “combination Emax” value [1] was 0.79, the “combination Emax” value [2] was 0.658 and the “combination Emax” value [3] was 0.563. The “combination Emax” value [4] was 0.494, the “combination Emax” value [5] was 0.736 and the “combination Emax” value [6] was 0.378. For the same molecule, the Bliss excess [7] was 0.0081, the Bliss excess [8] was -0.0245 and the Bliss excess [9] was 0.0422. For the same molecule, the Bliss excess [10] was -0.0233, the Bliss excess [11] was -0.0435 and the Bliss excess [12] was -0.0896. It also gave a Bliss excess [13] of -0.0687, a Bliss excess [14] of -0.0242 and a Bliss excess [15] of 0.113. The Bliss excess [16] was -0.0465, the Bliss excess [17] was -0.0344 and the Bliss excess [18] was 0.0073. It also gave a Bliss excess [19] of 0.0621 and a Bliss excess [20] of -0.0254.
`Cc1c2c(nn1C)CSCc1cc(n(C)n1)CSc1cc(c3ccccc3c1)OCCCc1c(C(=O)O)n(C)c3c-2c(Cl)ccc13` [AZD5991] + C1CN(CCC1(C(=O)N[C@@H](CCO)C2=CC=C(C=C2)Cl)N)C3=NC=NC4=C3C=CN4 [Capivasertib] (first compound max 1 µM, 7x7, partner max 3 µM) was tested, and the “combination Emax” value [1] was 1, the “combination Emax” value [2] was 0.19 and the “combination Emax” value [3] was 0.249. For the same molecule, the “combination Emax” value [4] was 0.352, the “combination Emax” value [5] was 0.747 and the “combination Emax” value [6] was 0.976. For the same molecule, the Bliss excess [7] was -0.01, the Bliss excess [8] was -0.0442 and the Bliss excess [9] was -0.023. It also gave a Bliss excess [10] of 0.0085, a Bliss excess [11] of -0.0249 and a Bliss excess [12] of -0.012. The Bliss excess [13] was -0.0316, the Bliss excess [14] was 0.0205 and the Bliss excess [15] was -0.0231. The Bliss excess [16] was 0.0094, the Bliss excess [17] was -0.0866 and the Bliss excess [18] was 0.0211. It also gave a Bliss excess [19] of 0.0085 and a Bliss excess [20] of 0.0135.
`Cc1c2c(nn1C)CSCc1cc(n(C)n1)CSc1cc(c3ccccc3c1)OCCCc1c(C(=O)O)n(C)c3c-2c(Cl)ccc13` [AZD5991] + C=CCn1c(=O)c2cnc(Nc3ccc(N4CCN(C)CC4)cc3)nc2n1-c1cccc(C(C)(C)O)n1 [AZD1775] (first compound max 1 µM, partner max 1 µM) was tested, and the “combination Emax” value [1] was 1, the “combination Emax” value [2] was 0.502 and the “combination Emax” value [3] was 0.458. For the same molecule, the “combination Emax” value [4] was 0.519, the “combination Emax” value [5] was 0.874 and the “combination Emax” value [6] was 0.966. The Bliss excess [7] was 0.0345, the Bliss excess [8] was 0.0071 and the Bliss excess [9] was -0.0959. For the same molecule, the Bliss excess [10] was 0.0493, the Bliss excess [11] was -0.053 and the Bliss excess [12] was -0.0201. For the same molecule, the Bliss excess [13] was -0.0441, the Bliss excess [14] was -0.0346 and the Bliss excess [15] was -0.0077. For the same molecule, the Bliss excess [16] was -0.0413, the Bliss excess [17] was -0.0244 and the Bliss excess [18] was -0.052. For the same molecule, the Bliss excess [19] was -0.0039 and the Bliss excess [20] was -0.0291.
With `Cc1c2c(nn1C)CSCc1cc(n(C)n1)CSc1cc(c3ccccc3c1)OCCCc1c(C(=O)O)n(C)c3c-2c(Cl)ccc13` [AZD5991] + CC1(C)CCC(CN2CCN(c3ccc(C(=O)NS(=O)(=O)c4ccc(NCC5CCOCC5)c([N+](=O)[O-])c4)c(Oc4cnc5[nH]ccc5c4)c3)CC2)=C(c2ccc(Cl)cc2)C1 [Venetoclax] (first compound max 1 µM, 7x7, partner max 1 µM) the “combination Emax” value [1] was 0.411, the “combination Emax” value [2] was 0.147 and the “combination Emax” value [3] was 0.119. The “combination Emax” value [4] was 0.439, the “combination Emax” value [5] was 0.774 and the “combination Emax” value [6] was 0.914. It also gave a Bliss excess [7] of -0.0465, a Bliss excess [8] of -0.025 and a Bliss excess [9] of -0.0335. The Bliss excess [10] was -0.0299, the Bliss excess [11] was -0.0306 and the Bliss excess [12] was 0.0081. The Bliss excess [13] was 0.0065, the Bliss excess [14] was 0.0511 and the Bliss excess [15] was -0.0062. The Bliss excess [16] was 0.0339, the Bliss excess [17] was -0.0513 and the Bliss excess [18] was 0.0194. It also gave a Bliss excess [19] of -0.0106 and a Bliss excess [20] of -0.0127.
In the case of `Cc1c2c(nn1C)CSCc1cc(n(C)n1)CSc1cc(c3ccccc3c1)OCCCc1c(C(=O)O)n(C)c3c-2c(Cl)ccc13` [AZD5991] + CCN(CCO)CCCOc1ccc2c(Nc3cc(CC(=O)Nc4cccc(F)c4)[nH]n3)ncnc2c1 [AZD2811] (first compound max 1 µM, 7x7, partner max 1 µM), the “combination Emax” value [1] is reported as 1, the “combination Emax” value [2] is reported as 0.219 and the “combination Emax” value [3] is reported as 0.234. The “combination Emax” value [4] was 0.444, the “combination Emax” value [5] was 0.81 and the “combination Emax” value [6] was 0.972. For the same molecule, the Bliss excess [7] was -0.0077, the Bliss excess [8] was 0.0282 and the Bliss excess [9] was 0.0153. It also gave a Bliss excess [10] of 0.0297, a Bliss excess [11] of 0.0082 and a Bliss excess [12] of -0.0295. It also gave a Bliss excess [13] of 0.0335, a Bliss excess [14] of -0.0046 and a Bliss excess [15] of 0.0296. For the same molecule, the Bliss excess [16] was 0.141, the Bliss excess [17] was 0.0487 and the Bliss excess [18] was 0.0399. For the same molecule, the Bliss excess [19] was -0.0024 and the Bliss excess [20] was 0.0306.
In the case of `Cc1c2c(nn1C)CSCc1cc(n(C)n1)CSc1cc(c3ccccc3c1)OCCCc1c(C(=O)O)n(C)c3c-2c(Cl)ccc13` [AZD5991] + CN(C)CCCOc1ccc(-c2ccc3ncc4c(c3c2)n(C2CCOCC2)c(=O)n4C)cn1 [AZD0156] (first compound max 1 µM, 7x7, partner max 1 µM), the “combination Emax” value [1] is reported as 0.417, the “combination Emax” value [2] is reported as 0.238 and the “combination Emax” value [3] is reported as 0.229. For the same molecule, the “combination Emax” value [4] was 0.229, the “combination Emax” value [5] was 0.585 and the “combination Emax” value [6] was 0.941. The Bliss excess [7] was 0.0039, the Bliss excess [8] was 0.0259 and the Bliss excess [9] was 0.0261. It also gave a Bliss excess [10] of 0.0346, a Bliss excess [11] of 0.0094 and a Bliss excess [12] of -0.0174. For the same molecule, the Bliss excess [13] was 0.0269, the Bliss excess [14] was -0.0666 and the Bliss excess [15] was -0.0084. The Bliss excess [16] was 0.0226, the Bliss excess [17] was 0.0816 and the Bliss excess [18] was -0.016. The Bliss excess [19] was 0.0351 and the Bliss excess [20] was 0.0154.
In the case of `Cc1c2c(nn1C)CSCc1cc(n(C)n1)CSc1cc(c3ccccc3c1)OCCCc1c(C(=O)O)n(C)c3c-2c(Cl)ccc13` [AZD5991] + C[C@@H]1COCCN1C2=NC(=NC(=C2)C3(CC3)[S@](=N)(=O)C)C4=C5C=CNC5=NC=C4 [AZD6738] (first compound max 1 µM, 7x7, partner max 10 µM), the “combination Emax” value [1] is reported as 0.942, the “combination Emax” value [2] is reported as 0.885 and the “combination Emax” value [3] is reported as 0.279. For the same molecule, the “combination Emax” value [4] was 0.439, the “combination Emax” value [5] was 0.891 and the “combination Emax” value [6] was 0.99. For the same molecule, the Bliss excess [7] was 0.0144, the Bliss excess [8] was 0.041 and the Bliss excess [9] was 0.0116. For the same molecule, the Bliss excess [10] was 0.0218, the Bliss excess [11] was 0.0032 and the Bliss excess [12] was 0.004. The Bliss excess [13] was 0.0339, the Bliss excess [14] was 0.0587 and the Bliss excess [15] was 0.0159. It also gave a Bliss excess [16] of 0.0097, a Bliss excess [17] of -0.0254 and a Bliss excess [18] of 0.0182. For the same molecule, the Bliss excess [19] was 0.0361 and the Bliss excess [20] was -0.0075.
